Test system: CMV
Assay: Exposure–response analysis of efficacy, primary endpoint: confirmed CMV viremia clearance at week 8 (SOLSTICE)
Assay type: in vivo, human
Details: for Probability of being responder, primary endpoint: AUCss 200 µg∙h/mL
Protocol: The exposure–response analyses for maribavir were based on data collected from transplant recipients with CMV infections that were refractory to treatment with ganciclovir, valganciclovir, foscarnet, or cidofovir in the phase 3 SOLSTICE study (ClinicalTrials.gov: NCT02931539). SOLSTICE was a multicenter, open-label, active-controlled study in which patients were randomized 2:1 to receive maribavir 400 mg BID or IAT for 8 weeks, with 12 weeks of follow-up. The primary endpoint was confirmed CMV clearance at the end of week 8, and the key secondary endpoint was achievement of CMV clearance and symptom control at the end of week 8, maintained through week 16. TE CMV mutation conferring resistance to maribavir was assessed as an exploratory endpoint. Full details of the SOLSTICE study have been published previously.
Posterior Bayes parameters of the final PopPK model were used to derive rich concentration–time profiles for maribavir. Actual dosing history and factors affecting the PK of maribavir (i.e., body weight and time-varying presence of strong CYP3A4 inhibitors or strong CYP3A4 inducers) were considered in the predictions.
Data set preparation, exploration, visualization of the data and exposure-response analyses were performed using R® (version 4.0.5 for efficacy and resistance analyses; version 4.0.2 for safety analysis) with comprehensive R® archive network (CRAN) and Certara Strategic Consulting (CSC) package. Firth correction on logistic regression was done based on library “logistf”. Logistic regressions with log-linear exposure effect or Emax exposure effect were performed using NONMEM Version VII (version 7.4).
Maribavir exposure parameters (AUCss, Cmax.ss, and Ctrough.ss) were combined with the primary and key secondary efficacy endpoints, and with TE CMV mutations conferring resistance to maribavir from the SOLSTICE study. The following covariates were included in the dataset to identify potential influencing factors: transplant type (HCT, SOT); CMV DNA level (high, intermediate, low) at baseline; symptom status (symptomatic or asymptomatic) at baseline; CMV resistant at baseline (yes, no); donor (D) and recipient (R) CMV serostatus (D+/R−, D+/R+, or D−/R+, D−/R−); antilymphocyte use (yes, no); immune function status as measured by total white blood cells from hematology panel at baseline; CMV-specific CD4 + CD69 + and CD8 + CD69 + T cells from immune function assay as continuous variables at baseline; enrolling region (North America, Europe, Asia Pacific); prior use of CMV prophylaxis (yes, no); age (as a continuous parameter) and age group (12 to < 18 years; 18 to < 45 years; 45 to < 65 years; ≥65 years); sex (male, female); race and ethnicity; TE CMV maribavir-resistant mutations (yes, no); and temporal identification of maribavir resistance (no, on maribavir treatment, post-maribavir treatment).
The exposure–response analyses were performed using a logistic regression model whereby a response can be defined as 0 (non-responder) or 1 (responder). Logistic regression analyses were performed to explore potential associations with maribavir exposure and the probability of response. The logistic regression model had the following form, assuming that maribavir exposure is included in the model:1 [drawing 1]
Pi is the probability of the event in the ith patient and α is the baseline Ln (odds) of the event. The model assumes a linear exposure effect on logit scale, with the parameter α representing the intercept, while β1 represents the slope linking the exposure parameter (X1) of maribavir (AUCss, Cmax.ss, and Ctrough.ss) to the response. The statistical significance of α and β1 was tested in the logistic regression models with a p value of < 0.05, and 95% CIs were provided for each parameter. The odds ratio (OR) for β1 was derived for a specific unit increment of the PK parameter. […]

[1] = primary endpoint, reference < 0.5%

## CC(C)Nc1nc2cc(Cl)c(Cl)cc2n1[C@H]1O[C@@H](CO)[C@H](O)[C@@H]1O [maribavir]
1st quartile of AUCss (range 72.2–170)
  Observed proportion of responders, primary endpoint: 59%
2nd quartile of AUCss (range 170–238)
  Observed proportion of responders, primary endpoint: 72%
3rd quartile of AUCss (range 238–354)
  Observed proportion of responders, primary endpoint: 59%
4th quartile of AUCss (range 354–802)
  Observed proportion of responders, primary endpoint: 38%
CD8 + CD69 + cell count ≥ 2%, no TE mutation
  Probability of being responder, primary endpoint: 90.0%
Developed TE CMV maribavir-resistant mutation, CD8 + CD69 + < 0.5%
  Probability of being responder, primary endpoint: 1.3%
Excluding 60 patients with TE CMV mutation conferring resistance, n = 171, p = 0.0709
  Relationship between maribavir exposure and probability of CMV viremia clearance at week 8: no statistical exposure–efficacy relationship
exposure–response population n = 231, 400 mg BID, 131 patients
  Patients meeting primary endpoint of confirmed CMV viremia clearance at week 8: 57%
N = 231, p = 0.008
  Relationship between maribavir exposure (AUCss) and probability of CMV viremia clearance at week 8: negative relationship
No TE CMV maribavir-resistant mutation, CD8 + CD69 + < 0.5%
  Probability of being responder, primary endpoint: 74.2%
Primary endpoint
  OR (95% CI): treatment-emergent maribavir resistance on maribavir treatment: 0.00457 (3.59 × 10^–5, 0.0333)
Primary endpoint, week 8
  Non-responders among patients with TE maribavir-resistant CMV mutations: 81%
[1]
  Logistic regression Estimate (SE): baseline CD8+CD69+ cell count ≥2%: 1.19 (0.630)
  OR (95% CI): baseline CD8+CD69+ cell count not reported: 0.730 (0.328, 1.66)
  OR (95% CI): baseline CD8+CD69+ cell count ≥0.5% to <2%: 0.739 (0.289, 1.98)
  OR (95% CI): baseline CD8+CD69+ cell count ≥2%: 3.29 (1.07, 13.4)
